The values that follow come from US6677331B2, “Carbapenem derivatives” (Meiji Seika Kaisha, Ltd., priority 1998, dated 2004).

The structures appear in SMILES notation.

One series concerns C. freundii GN346. Nature of the series: Test 1: Anti-Microbial Activities (MIC). The conditions noted are these: Citrobacter freundii, Sensitivity Disk agar-N+5% Horse blood, inoculants 10^6 CFU/ml, read-out: minimum inhibiting concentrations (MIC). It is filed as cell-based. How it is done: (§1) The minimum inhibiting concentrations (MIC, μg/ml) of the compounds according to the present invention to various pathogenic bacteria was measured in accordance with the method described in CHEMOTHERAPY, vol. 16, No. 1,99, 1968. The culture medium for measurement was Sensitivity Disk agar-N+5% Horse blood, and the amount of inoculants was 10^6 CFU/ml.

A further series relates to E. coli NIHJ JC-2. Kind of series: Test 1: Anti-Microbial Activities (MIC). It is filed as cell-based. As to conditions: Escherichia coli, NIHJJC2, Sensitivity Disk agar-N+5% Horse blood, inoculants 10^6 CFU/ml, read-out: minimum inhibiting concentrations (MIC). How it is done:
as §1

A further series has as its system E. faecalis W-73. Nature of the series: Test 1: Anti-Microbial Activities (MIC). It is filed as cell-based. The conditions noted are these: Enterococcus faecalis, W73, Sensitivity Disk agar-N+5% Horse blood, inoculants 10^6 CFU/ml, read-out: minimum inhibiting concentrations (MIC). As for the experimental part: as §1
A further series deals with E. hirae ATCC8043. Nature of the series: Test 1: Anti-Microbial Activities (MIC). As to conditions: Enterococcus hirae, Sensitivity Disk agar-N+5% Horse blood, inoculants 10^6 CFU/ml, read-out: minimum inhibiting concentrations (MIC). It is filed as cell-based. As for the experimental part: as §1
In the next series the test system is H. influenzae PRC2. Nature of the series: Test 1: Anti-Microbial Activities (MIC). It is filed as cell-based. The conditions noted are these: Haemophilus influenzae, Sensitivity Disk agar-N+5% Horse blood, inoculants 10^6 CFU/ml, read-out: minimum inhibiting concentrations (MIC). How it is done:
as §1

The subject of the next series is H. influenzae PRC44. Nature of the series: Test 1: Anti-Microbial Activities (MIC). It is filed as cell-based. The conditions noted are these: Haemophilus influenzae, Sensitivity Disk agar-N+5% Horse blood, inoculants 10^6 CFU/ml, read-out: minimum inhibiting concentrations (MIC). As for the experimental part:
as §1

The test system of a further series is K. pneumoniae PCI602. Kind of series: Test 1: Anti-Microbial Activities (MIC). As to conditions: Klebsiella pneumoniae, Sensitivity Disk agar-N+5% Horse blood, inoculants 10^6 CFU/ml, read-out: minimum inhibiting concentrations (MIC). Format: cell-based. How it is done: as §1
The next series deals with M. catarrhalis W-0500. Kind of series: Test 1: Anti-Microbial Activities (MIC). It is filed as cell-based. As to conditions: Moraxella catarrhalis, W0500, Sensitivity Disk agar-N+5% Horse blood, inoculants 10^6 CFU/ml, read-out: minimum inhibiting concentrations (MIC). As for the experimental part:
as §1

The subject of the next series is P. vulgaris GN7919. Kind of series: Test 1: Anti-Microbial Activities (MIC). Format: cell-based. As to conditions: Proteus vulgaris, Sensitivity Disk agar-N+5% Horse blood, inoculants 10^6 CFU/ml, read-out: minimum inhibiting concentrations (MIC). As for the experimental part:
as §1

A further series has as its system S. aureus 209P JC-1. Nature of the series: Test 1: Anti-Microbial Activities (MIC). Format: cell-based. The conditions noted are these: Staphylococcus aureus, Sensitivity Disk agar-N+5% Horse blood, inoculants 10^6 CFU/ml, read-out: minimum inhibiting concentrations (MIC). As for the experimental part:
as §1

The subject of another series is S. aureus M126. Kind of series: Test 1: Anti-Microbial Activities (MIC). It is filed as cell-based. As to conditions: Staphylococcus aureus; S. aureus M126, methicillin-hyperresistant strain (MRSA); Sensitivity Disk agar-N+5% Horse blood; inoculants 10^6 CFU/ml; read-out: minimum inhibiting concentrations (MIC). As for the experimental part:
as §1

A further series has as its system S. epidermidis ATCC14990. Kind of series: Test 1: Anti-Microbial Activities (MIC). As to conditions: Staphylococcus epidermidis, Sensitivity Disk agar-N+5% Horse blood, inoculants 10^6 CFU/ml, read-out: minimum inhibiting concentrations (MIC). Format: cell-based. How it is done:
as §1

The next series relates to S. pneumoniae PRC9. Nature of the series: Test 1: Anti-Microbial Activities (MIC). It is filed as cell-based. As to conditions: Streptococcus pneumoniae; S. pneumoniae PRC9, penicillin-hyperresistant strain (PRSP); Sensitivity Disk agar-N+5% Horse blood; inoculants 10^6 CFU/ml; read-out: minimum inhibiting concentrations (MIC). As for the experimental part:
as §1

The nature of series [1]: Test 5: Acute Toxicity (i.v.). It is filed as in vivo, mice (ICR, male). The conditions noted are these: mice, 1,500 mg/kg i.v. How it is done: The compounds of Examples 44, 62, 88, and 111 were tested again in the same manner as the above provided that cilastatin sodium was co-administered.
A short description of series [2]: solubility (remark in the acute toxicity test). Format: physicochemical. As to conditions: reason for the lower i.v. dose.

On to `CSc1ncn2cc(C3=C(C(=O)[O-])N4C(=O)[C@H]([C@@H](C)O)[C@H]4[C@H]3C)sc12.[Na+]` [Example 111, Sodium (1S,5R,6S)-6-((1R)-1-Hydroxyethyl)-1-methyl-2-(7-methylthioimidazo[5,1-b]thiazol-2-yl)-1-carbapen-2-em-3-carboxylate], for which the MIC with C. freundii GN346 was 1.56 µg/mL; in the series on E. coli NIHJ JC-2, 0.78 µg/mL; with E. faecalis W-73 it was 0.2 µg/mL; in the series with E. hirae ATCC8043, 0.39 µg/mL; with H. influenzae PRC2, below 0.025 µg/mL; with H. influenzae PRC44 it was 0.05 µg/mL. Also, the MIC in the series with K. pneumoniae PCI602 was 0.78 µg/mL; in the series with M. catarrhalis W-0500, below 0.025 µg/mL; in the series on P. vulgaris GN7919, 0.39 µg/mL; in the series on S. aureus 209P JC-1, below 0.025 µg/mL; in the series with S. aureus M126, 1.56 µg/mL; in the series on S. epidermidis ATCC14990, below 0.025 µg/mL. In the series with S. pneumoniae PRC9, the MIC amounted to 0.05 µg/mL. The “survival (acute toxicity)” value in series [1] and in [1] (cilastatin sodium co-administered) was “All of the animal survived” in each case. The solubility entry in [2] was “limited solubility”.
